Source: US8859620B2, “Phthalanilate compounds and methods of use” (University of Notre Dame du Lac, priority 2009, dated 2014)
Values after ≈ are worked out from the molar mass of the structure shown. Read-outs that look alike come from different tables or passages of the source.

Legend:
PBP2a = PBP2a (Staphylococcus aureus, UniProt P07944); assay: PBP2 assay (Villegas-Esterada et al.); type: biochemical; settings: Table 10
Description: (§1) β-Lactamase Assays (TEM-1, P99, and OXA-10): The activity of the compounds of the invention (inhibitors) toward β-lactamases was evaluated using 96 well plates. The reaction mixture included 10 mM sodium phosphate, pH 7.0, 150 mM sodium chloride, 0.01% Triton X-100, 100 μM nitrocefin, 10 nM of β-lactamases (class A: TEM-1; class C: P99, or class D: OXA-10), and variable concentrations of the inhibitors in a total volume of 100 μL. β-Lactamases were pre-incubated with the compounds at room temperature for 5 minutes, and the assay was initiated by the addition of nitrocefin. The inhibition of the enzyme activity by the compounds was determined by monitoring color change (from yellow to red) of nitrocefin after 20 minutes. Stock solutions of the compounds were prepared in dimethyl sulfoxide (DMSO). No more than 5% DMSO was present in assays, unless noted otherwise. B1aR Assay: The surface domain of B1aR (1 μM) was added to each inhibitor (at various concentrations) in 100 mM sodium phosphate, 50 mM sodium bicarbonate, at pH 7.0. The reaction mixtures were incubated at room temperature for 20 minutes. BOCILLIN FL, a fluorogenic ligand, was added to a concentration of 20 μM in a final volume of 20 μL. The mixtures were incubated at 37° C. for 5 minutes, at which point the reactions were quenched by the addition of 15 μL of the SDS sample buffer (125 mM Tris, 4% SDS, 20% glycerol, 2% 2-mercaptoethanol, pH 6.8), and were boiled for 4 minutes. The samples were loaded onto 15% SDS-PAGE, the gel was developed and scanned using a Storm 840® Fluorimager. The fluorescent bands of BOCILLIN FL-labeled B1aR^S were analyzed by Image Quant 5.2 software. PBP2 Assay: The PBP2 assay was performed according to the methods of Villegas-Esterada et al. (J. Am. Chem. Soc. 2008, 130, 9212-9213).

[1] = molecular target: TEM-1 (class A β-lactamase) (Escherichia coli, UniProt P62593); assay: β-Lactamase assay (nitrocefin colour change), TEM-1; type: biochemical; settings: for TEM-1: Table 10, class symbols x/xx/xxx, key not given
Description: as §1

[2] = molecular target: P99 (class C β-lactamase) (Enterobacter cloacae, UniProt P05364); assay: β-Lactamase assay (nitrocefin colour change), P99; type: biochemical; settings: for P99: Table 10, class symbols x/xx/xxx, key not given; for IC50: nitrocefin 100 μM, 10 nM enzyme, 5 min pre-incubation, read-out: IC50s P99
Description: as §1

[3] = molecular target: OXA-10 (class D β-lactamase) (Pseudomonas aeruginosa, UniProt P14489); assay: β-Lactamase assay (nitrocefin colour change), OXA-10; type: biochemical; settings: for OXA-10: Table 10, class symbols x/xx/xxx, key not given; for IC50: nitrocefin 100 μM, 10 nM enzyme, 5 min pre-incubation, read-out: IC50s OXA-10
Description: as §1

surface domain of B1aR = surface domain of B1aR (Staphylococcus aureus, UniProt P18357); assay: B1aR assay (BOCILLIN FL labeling, SDS-PAGE); type: binding, Staphylococcus aureus (MRSA); settings: Table 10; class symbols x/xx/xxx, key not given
Description: as §1

S. aureus NRS100 (Mec^R) = assay: MIC against S. aureus NRS100 (Table 14); type: cell-based, Staphylococcus aureus; settings: for MIC: compounds dissolved in DMSO or 1% sodium carbonate; for inhibitory activity (in words): Table 14
Description: The recited compounds were dissolved in DMSO or in 1% sodium carbonate and transferred into micro titer plate to final concentration of 1000 μg/mL.

[4] = system: methicillin-resistant strains of S. aureus; assay: MIC against methicillin-resistant S. aureus (Table 15); type: cell-based; settings: Staphylococcus aureus, dissolved in 100% DMSO, diluted into Mueller Hinton II Broth to final 16 μg/mL
From the text: Table 15 illustrates the inhibition of methicillin-resistant strains of S. aureus by selected compounds of the invention.

S. aureus NRS11 (Mec^S) = assay: MIC against S. aureus NRS11 (Table 13); type: cell-based, Staphylococcus aureus; settings: for MIC: compounds dissolved in DMSO or 1% sodium carbonate; for inhibitory properties (in words): Table 13
Description: All recited compounds were dissolved in DMSO or in 1% sodium carbonate and transferred to micro titer plates to final concentrations of 1000 μg/mL.

[5] = Staphylococcus aureus, read-out: MIC

P99 (class C β-lactamase), sequence (P05364 21-381): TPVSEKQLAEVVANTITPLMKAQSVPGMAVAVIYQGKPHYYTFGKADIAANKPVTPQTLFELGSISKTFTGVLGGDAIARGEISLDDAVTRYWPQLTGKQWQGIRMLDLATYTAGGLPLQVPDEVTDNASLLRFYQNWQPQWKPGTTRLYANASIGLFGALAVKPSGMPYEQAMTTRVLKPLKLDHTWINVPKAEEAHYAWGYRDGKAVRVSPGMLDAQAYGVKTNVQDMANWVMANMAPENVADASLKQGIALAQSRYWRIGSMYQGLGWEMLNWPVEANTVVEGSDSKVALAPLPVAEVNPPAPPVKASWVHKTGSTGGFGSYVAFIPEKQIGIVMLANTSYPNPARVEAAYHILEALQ
surface domain of B1aR, sequence (P18357 331-585): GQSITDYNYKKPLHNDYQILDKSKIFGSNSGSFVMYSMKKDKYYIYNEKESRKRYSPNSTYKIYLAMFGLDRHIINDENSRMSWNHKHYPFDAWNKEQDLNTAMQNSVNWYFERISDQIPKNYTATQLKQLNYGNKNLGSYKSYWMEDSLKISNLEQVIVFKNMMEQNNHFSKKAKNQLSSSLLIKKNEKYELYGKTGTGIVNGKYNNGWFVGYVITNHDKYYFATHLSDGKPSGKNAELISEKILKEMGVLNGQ
TEM-1 (class A β-lactamase), sequence (P62593 24-286 limits assumed): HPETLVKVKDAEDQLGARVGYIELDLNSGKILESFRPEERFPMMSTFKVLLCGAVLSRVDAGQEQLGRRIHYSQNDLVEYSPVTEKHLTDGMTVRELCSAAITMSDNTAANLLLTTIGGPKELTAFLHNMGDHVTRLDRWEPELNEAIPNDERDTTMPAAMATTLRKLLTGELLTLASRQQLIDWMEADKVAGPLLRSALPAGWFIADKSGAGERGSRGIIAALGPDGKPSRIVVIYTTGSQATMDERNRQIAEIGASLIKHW
OXA-10 (class D β-lactamase), sequence (P14489 20-266, species assumed): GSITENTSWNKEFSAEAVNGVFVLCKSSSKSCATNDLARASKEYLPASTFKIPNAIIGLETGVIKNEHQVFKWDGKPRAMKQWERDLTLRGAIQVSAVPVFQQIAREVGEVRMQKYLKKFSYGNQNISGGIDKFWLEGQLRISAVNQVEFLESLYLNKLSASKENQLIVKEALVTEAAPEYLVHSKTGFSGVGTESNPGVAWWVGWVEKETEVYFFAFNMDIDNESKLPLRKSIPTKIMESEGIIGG
PBP2a, sequence (P07944 whole entry): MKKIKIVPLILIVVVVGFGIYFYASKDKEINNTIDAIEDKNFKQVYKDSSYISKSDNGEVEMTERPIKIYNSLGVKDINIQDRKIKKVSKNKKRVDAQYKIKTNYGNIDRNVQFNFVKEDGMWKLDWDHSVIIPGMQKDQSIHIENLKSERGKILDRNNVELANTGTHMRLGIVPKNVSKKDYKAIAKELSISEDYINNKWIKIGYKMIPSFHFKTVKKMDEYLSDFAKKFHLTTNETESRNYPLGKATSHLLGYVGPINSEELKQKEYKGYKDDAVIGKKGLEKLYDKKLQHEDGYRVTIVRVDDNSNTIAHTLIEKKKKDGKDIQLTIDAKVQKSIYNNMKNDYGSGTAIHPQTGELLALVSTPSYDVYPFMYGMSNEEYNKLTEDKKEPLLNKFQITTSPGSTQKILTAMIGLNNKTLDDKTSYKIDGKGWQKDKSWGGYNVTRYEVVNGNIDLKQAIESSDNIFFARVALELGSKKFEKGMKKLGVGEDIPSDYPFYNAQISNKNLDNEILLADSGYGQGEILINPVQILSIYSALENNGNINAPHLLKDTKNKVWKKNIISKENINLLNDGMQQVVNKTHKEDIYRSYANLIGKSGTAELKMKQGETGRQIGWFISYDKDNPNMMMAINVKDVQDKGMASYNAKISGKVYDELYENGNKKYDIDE

Row | Structure (SMILES) | TEM-1 [1] | P99 [2] | OXA-10 [3] | BlaR (surface domain of B1aR) | MIC (S. aureus NRS100 (Mec^R); [5]) [µg/mL] | also measured
1 | CCC(CO)NC(=O)C1=C(C(=O)O)SCCS1 (centres unmarked) [Compound 126] | – | – | – | – | – | PBP2a* (inhibitory concentration) (PBP2a): xx
2 | O=C(O)C1=C(C(=O)N[C@@H](CO)[C@@H](O)c2ccccc2)SCCS1 [Compound 127] | – | – | – | – | – | PBP2a* (inhibitory concentration) (PBP2a): xx
3 | O=C(O)c1c(Br)c(Br)c(Br)c(Br)c1C(=O)Nc1ccc(Oc2ccccc2)cc1 [Compound 222] | – | – | – | – | – | PBP2a* (inhibitory concentration) (PBP2a): xx
4 | CCCCCCCCOc1ccc(NC(=O)c2ccccc2C(=O)O)cc1 [Compound 270] | xxx | xxx | xxx | xx | – | –
5 | CCCCCCCCOc1ccc(NC(=O)c2c(F)c(F)c(F)c(F)c2C(=O)O)cc1 [Compound 271] | xxx | xxx | xxx | xxx | – | –
6 | CCCCCCCCCCCCCCCCOc1ccc(NC(=O)c2c(F)c(F)c(F)c(F)c2C(=O)O)cc1 [Compound 289] | – | xx | xxx | xxx | – | IC50 [1]: 23.1 ± 2.4 µM; IC50 [2]: 1.2 ± 0.1 µM; IC50 [3]: 0.7 ± 0.15 µM
7 | CCCCCCCCCCCCCCCCOc1ccc(NC(=O)c2c(Cl)c(Cl)c(Cl)c(Cl)c2C(=O)O)cc1 [Compound 290] | – | xxx | xxx | xxx | – | IC50 [1]: 0.6 ± 0.06 µM; IC50 [2]: 0.4 ± 0.06 µM; IC50 [3]: 0.5 ± 0.05 µM
8 | CCCCCCCCCCCCCCCCOc1ccc(NC(=O)c2c(Br)c(Br)c(Br)c(Br)c2C(=O)O)cc1 [Compound 291] | xxx | xxx | xxx | xx | – | IC50 [1]: 0.2 ± 0.04 µM; IC50 [2]: 0.2 ± 0.02 µM; IC50 [3]: 0.3 ± 0.06 µM
9 | CCCCCCCCOc1ccc(NC(=O)c2c(F)c(F)c(F)c(F)c2C(=O)O)cc1Cl [Compound 301] | xx | xxx | xxx | xxx | 16 (≈ 33.6 µM) | IC50 [1]: 5.1 ± 1 µM; IC50 [2]: 9.9 ± 1.7 µM; IC50 [3]: 23 ± 2 µM; PBP2a* (inhibitory concentration) (PBP2a): xxx
10 | CCCCCCCCOc1ccc(NC(=O)c2c(Cl)c(Cl)c(Cl)c(Cl)c2C(=O)O)cc1Cl [Compound 302] | – | – | – | – | 4 (≈ 7.38 µM) | MIC [4]: 4 µg/mL (≈ 7.38 µM)
11 | CCCCCCCCCCOc1ccc(N(C)C(=O)c2c(Br)c(Br)c(Br)c(Br)c2C(=O)O)cc1 [Compound 316] | – | – | – | xx | – | –
12 | CCCCCCCCCCOc1ccc(N(C)C(=O)c2ccccc2C(=O)O)cc1 [Compound 318] | – | – | – | xxx | – | –
13 | CCCCCCCCCCOc1ccc(N(C)C(=O)c2c(F)c(F)c(F)c(F)c2C(=O)O)cc1 [Compound 319] | – | – | – | xxx | – | –
14 | CCCCCCCCCCOc1ccc(NC(=O)c2c(Br)c(Br)c(Br)c(Br)c2C(=O)O)cc1 [Compound 329] | – | – | – | xxx | – | –
15 | O=C(O)c1c(Br)c(Br)c(Br)c(Br)c1C(=O)Nc1ccc(OCc2ccccc2)nc1 [Compound 365] | – | – | xx | – | 16 (≈ 24.1 µM) | MIC (S. aureus NRS11 (Mec^S); [5]): 8 µg/mL (≈ 12 µM); inhibitory properties (in words) (S. aureus NRS11 (Mec^S)): significant inhibitory properties; inhibitory activity (in words) (S. aureus NRS100 (Mec^R)): significant inhibitory activity
16 | CC(Oc1ccc(NC(=O)c2c(Cl)c(Cl)c(Cl)c(Cl)c2C(=O)O)cc1Cl)c1ccccc1 (centres unmarked) [Compound 381] | – | – | xxx | – | 32 (≈ 60 µM) | MIC (S. aureus NRS11 (Mec^S); [5]): 16 µg/mL (≈ 30 µM); inhibitory properties (in words) (S. aureus NRS11 (Mec^S)): significant inhibitory properties; inhibitory activity (in words) (S. aureus NRS100 (Mec^R)): significant inhibitory activity
17 | CC(Oc1ccc(NC(=O)c2c(Br)c(Br)c(Br)c(Br)c2C(=O)O)cc1Cl)c1ccccc1 (centres unmarked) [Compound 382] | xxx | xxx | xxx | – | < 8 | IC50 [1]: 5.3 ± 1.1 µM; IC50 [2]: 24.4 ± 1.9 µM; IC50 [3]: 26.6 ± 1.6 µM; PBP2a* (inhibitory concentration) (PBP2a): xxx; MIC (S. aureus NRS11 (Mec^S); [5]): < 8 µg/mL; inhibitory activity (in words) (S. aureus NRS100 (Mec^R)): significant inhibitory activity
18 | Cc1ccccc1COc1ccc(NC(=O)c2c(Cl)c(Cl)c(Cl)c(Cl)c2C(=O)O)cc1Cl [Compound 385] | xx | xx | xxx | – | 16 (≈ 30 µM) | PBP2a* (inhibitory concentration) (PBP2a): xxx; MIC (S. aureus NRS11 (Mec^S); [5]): 16 µg/mL (≈ 30 µM); inhibitory properties (in words) (S. aureus NRS11 (Mec^S)): significant inhibitory properties; inhibitory activity (in words) (S. aureus NRS100 (Mec^R)): significant inhibitory activity
19 | O=C(O)c1ccccc1C(=O)Nc1ccc(OCc2cccc(C(F)(F)F)c2)c(Cl)c1 [Compound 387] | – | – | – | xx | – | –
20 | O=C(O)c1c(F)c(F)c(F)c(F)c1C(=O)Nc1ccc(OCc2cccc(C(F)(F)F)c2)c(Cl)c1 [Compound 388] | xx | – | xx | – | 128 (≈ 245 µM) | MIC (S. aureus NRS11 (Mec^S); [5]): 128 µg/mL (≈ 245 µM)
21 | O=C(O)c1c(Cl)c(Cl)c(Cl)c(Cl)c1C(=O)Nc1ccc(OCc2cccc(C(F)(F)F)c2)c(Cl)c1 [Compound 389] | xxx | xxx | xxx | – | < 8 | IC50 [1]: 4.5 ± 0.4 µM; IC50 [2]: 20.2 ± 3 µM; IC50 [3]: 44.2 ± 3.4 µM; MIC (S. aureus NRS11 (Mec^S); [5]): < 8 µg/mL; inhibitory properties (in words) (S. aureus NRS11 (Mec^S)): significant inhibitory properties; inhibitory activity (in words) (S. aureus NRS100 (Mec^R)): significant inhibitory activity
22 | COCCOCCOc1ccc(NC(=O)c2c(Br)c(Br)c(Br)c(Br)c2C(=O)O)cn1 [Compound 403] | – | – | – | – | – | MIC (S. aureus NRS11 (Mec^S)): >2,000 μg/mL; MIC (S. aureus NRS100 (Mec^R)): >2,000 μg/mL
23 | COCCOCCOc1ccc(NC(=O)c2c(Br)c(Br)c(Br)c(Br)c2C(=O)O)c[n+]1[O-] [Compound 410] | – | – | – | – | 500 (≈ 723 µM) | MIC (S. aureus NRS11 (Mec^S); [5]): 500 µg/mL (≈ 723 µM)
24 | O=C(O)c1c(F)c(F)c(F)c(F)c1C(=O)Nc1ccc(Oc2cc(C(F)(F)F)cc(C(F)(F)F)c2)cc1 [Compound 412] | – | – | – | xx | – | –
25 | O=C(O)c1ccccc1C(=O)Nc1ccc(OCc2cccc(OC(F)(F)F)c2)c(Cl)c1 [Compound 417] | – | – | – | xx | 250 (≈ 537 µM) | –
26 | O=C(O)c1c(F)c(F)c(F)c(F)c1C(=O)Nc1ccc(OCc2cccc(OC(F)(F)F)c2)c(Cl)c1 [Compound 418] | – | – | xx | xxx | 125 (≈ 232 µM) | –
27 | O=C(O)c1ccc([N+](=O)[O-])cc1C(=O)Nc1ccc(OCc2cccc(OC(F)(F)F)c2)c(Cl)c1 [Compound 422] | xx | xx | xx | xxx | 125 (≈ 245 µM) | PBP2a* (inhibitory concentration) (PBP2a): xxx
